As usually defined, the IC50 is the concentration that gives 50% inhibition. The term EC50 denotes the concentration at which the effect is half-maximal. Read a high EC50 as lower potency in that assay.

Structures are written as SMILES.

One assay concerns SUDHL5. Kind of assay: Antiproliferation assay SUDHL5 (Assay 7). It is filed as cell-based. The settings on record: Homo sapiens, SU-DHL-5, 72 h, SUDHL5 cells, CellTiter-Glo, median, read-out: IC50 Antiproli SUDHL5 [M] (median). Put shortly:
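Treated cells sat 72 h in a humidified 37 °C incubator, outer wells unused, before CellTiter-Glo reagent and a 10 min wait preceded luminescence reading; identical measurement of a parallel day 0 plate defined time zero.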
For orientation: Cellular ATP, detected with luciferase, serves as a proxy for viable cell number.

For a further assay, the system named is SUDHL10. Kind of assay: Induction of caspase-3/7 activity, SUDHL10 (Assay 4). The assay is classed as cell-based. Conditions: Homo sapiens, SU-DHL10, 3 h, SUDHL10 cells, Caspase-Glo 3/7, median. Put shortly: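 DLBCL lines treated with compounds for 3 h at 37° C.; caspase-3/7 activity read by Caspase-Glo 3/7 luminescence. Medium-only background subtracted; EC50 fitted with bottom fixed at 1 and top set to reference compound's maximal induction.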

The target of another assay is MCL-1 (Homo sapiens (Human), UniProt Q07820, K194A/K197A/R201A). Kind of assay: Protein-protein interaction assay MCL-1/Noxa BH3 peptide (MCL-1 assay), TR-FRET. It is filed as binding. Conditions: MCL-1/Noxa BH3 peptide TR-FRET; median. The essentials: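 TR-FRET competition between MBP-MCL-1 (173-321, 1 nM) and biotin-Noxa BH3 peptide (1 nM) with anti-MBP-Eu/streptavidin-XL665; 11 compound levels 0.1 nM–20 μM, 10 min preincubation. Incubated 1 h at 22 °C then overnight at 4 °C, pH 7 Tris buffer. 665/620 ratio normalized to DMSO and no-MCL-1; 4-parameter IC50.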
Chain of MCL-1 (Q07820 whole entry K194A/K197A/R201A, looked up): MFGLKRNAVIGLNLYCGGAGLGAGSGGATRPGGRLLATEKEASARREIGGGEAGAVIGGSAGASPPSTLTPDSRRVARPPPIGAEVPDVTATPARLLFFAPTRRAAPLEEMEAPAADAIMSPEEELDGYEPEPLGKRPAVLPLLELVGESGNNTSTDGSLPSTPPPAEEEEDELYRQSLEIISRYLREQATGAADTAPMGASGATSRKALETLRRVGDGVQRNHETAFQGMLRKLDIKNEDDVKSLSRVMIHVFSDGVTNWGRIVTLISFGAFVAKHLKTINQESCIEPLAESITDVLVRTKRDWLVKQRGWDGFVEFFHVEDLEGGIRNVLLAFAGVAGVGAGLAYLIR

On to `CCc1nn(C)c2c1-c1c(F)ccc3c(CCCOc4cccc5c4CCCC5)c(C(=O)O)n(c13)CCCCOC2` (racemic) [Example 44, (rac)-12-ethyl-13-fluoro-10-methyl-1-(3-((5,6,7,8-tetrahydronaphthalen-1-yl)oxy)propyl)-4,5,6,7,9,10-hexahydropyrazolo[4′,3′:9,10][1]oxa[6]azacycloundecino[8,7,6-hi]indole-2-carboxylic acid], for which the values for the IC50 with SUDHL5 and at MCL-1 were 5.5e-07 M and 1.7 nM, respectively. The concentration for a half-maximal effect (EC50) with SUDHL10 was 4500 nM.

For `CCc1nn(C)c2c1-c1c(F)ccc3c(CCCOc4cccc5c4CCC5)c(C(=O)O)n(c13)CCCCOC2` (racemic) [Example 45, (rac)-1-(3-((2,3-dihydro-1H-inden-4-yl)oxy)propyl)-12-ethyl-13-fluoro-10-methyl-4,5,6,7,9,10-hexahydropyrazolo[4′,3′:9,10][1]oxa[6]azacycloundecino[8,7,6-hi]indole-2-carboxylic acid], the half-inhibitory concentration (IC50) in the assay with SUDHL5 was determined as 1.9e-06 M; on MCL-1, 1.4 nM. The same compound showed a concentration giving a half-maximal response (EC50) in the assay with SUDHL10 of 6400 nM.

Consider `CCc1nn(C)c2c1-c1c(F)ccc3c(CCCOc4cc(C)c(Cl)c(C)c4)c(C(=O)O)n(c13)CCCCOC2` (racemic) [Example 46, (rac)-1-(3-(4-chloro-3,5-dimethylphenoxy)propyl)-12-ethyl-13-fluoro-10-methyl-4,5,6,7,9,10-hexahydropyrazolo[4′,3′:9,10][1]oxa[6]azacycloundecino[8,7,6-hi]indole-2-carboxylic acid], for which the values for the IC50 in the assay with SUDHL5 and at MCL-1 were 2.9e-06 M and 2 nM, respectively. In the assay with SUDHL10, this compound gave a 50% effective concentration (EC50) of 7700 nM.

On to `CCc1c2c(nn1C)CN(C)CCCCn1c(C(=O)O)c(CCCOc3cccc4c3CCC4)c3ccc(F)c-2c31` (racemic) [Example 51, (rac)-7-[3-(2,3-dihydro-1H-inden-4-yloxy)propyl]-3-ethyl-4-fluoro-2,14-dimethyl-10,11,12,13,14,15-hexahydro-2H-pyrazolo[3′,4′:8,9][1,6]diazacycloundecino[10,11,1-hi]indole-8-carboxylic acid], for which the values for the IC50 with SUDHL5 and against MCL-1 were 2.6e-07 M and 0.91 nM, respectively. The compound also yielded an EC50 in the assay with SUDHL10 of 440 nM.

Take `CCc1c2c(nn1C)CN(C)CCCCn1c(C(=O)O)c(CCCOc3cccc4c3CCCC4)c3ccc(F)c-2c31` (racemic) [Example 52, (rac)-3-ethyl-4-fluoro-2,14-dimethyl-7-[3-(5,6,7,8-tetrahydronaphthalen-1-yloxy)propyl]-10,11,12,13,14,15-hexahydro-2H-pyrazolo[3′,4′:8,9][1,6]diazacycloundecino[10,11,1-hi]indole-8-carboxylic acid]: the 50% inhibitory concentration (IC50) came to 2.3e-07 M with SUDHL5 and 1.7 nM against MCL-1. For the same compound, in the assay on SUDHL10, the concentration for a half-maximal effect (EC50) was found to be 210 nM.

As to `CCc1c2c(nn1C)CN(C)CCCCn1c(C(=O)O)c(CCCOc3cccc4cc(F)ccc34)c3ccc(F)c-2c31` (racemic) [Example 53, (rac)-3-ethyl-4-fluoro-7-{3-[(6-fluoro-1-naphthyhoxy]propyl}-2,14-dimethyl-10,11,12,13,14,15-hexahydro-2H-pyrazolo[3′,4′:8,9][1,6]diazacycloundecino[10,11,1-hi]indole-8-carboxylic acid], the results for the half-maximal inhibitory concentration (IC50) in the assay on SUDHL5 and on MCL-1 were 3.7e-07 M and 0.91 nM, respectively. Besides, the EC50 with SUDHL10 amounted to 490 nM.

Regarding `CCc1c2c(nn1C)CN(C)CCCCn1c(C(=O)O)c(CCCOc3cccc4ccccc34)c3ccc(F)c-2c31` (racemic) [Example 54, (rac)-3-ethyl-4-fluoro-2,14-dimethyl-7-[3-(1-naphthyloxy)propyl]-10,11,12,13,14,15-hexahydro-2H-pyrazolo[3′,4′:8,9][1,6]diazacycloundecino[10,11,1-hi]indole-8-carboxylic acid], the results for the half-inhibitory concentration (IC50) in the assay with SUDHL5 and against MCL-1 were 4.4e-07 M and 0.72 nM, respectively. The EC50 in the assay on SUDHL10 is 680 nM.

Values taken from patent US11286263B2, “Macrocyclic fluorine substituted indole derivatives” (The Broad Institute, Inc., priority 2017, dated 2022).
